According to US9017700B2, “Production of a viable, storable worm egg suspension” (Dr. Falk Pharma GmbH, priority 2008, dated 2015):
Marks after values point to notes of the source that are not given here.

Experiments:
Candida albicans [1] = assay: Colony number in TSO samples at pH 4 with preservatives; assay type: cell-based; details: 10 000 TSO/ml in phosphate buffer pH 4, 25° C.; for T 1d: 1 day; for T 7d: 7 days
Experimental: (§1) Raising the pH from pH 2 to pH 4 and addition of preservatives Experimental conditions for examples 4a to 4e: […] The following microorganisms were added to the test samples: • Aspergillus niger in the form of an individual microorganism • Pseudomonas aruginosa, Staphylococcus aureus, Candida albicans and Escherichia coli in combination. The incubation temperature was 25° C. The test plates were evaluated after 1 to 7 days.

Aspergillus niger [2] = assay: as above; assay type: cell-based; details: 10 000 TSO/ml in phosphate buffer pH 4, 25° C.; for T 1d: 1 day; for T 7d: 7 days
Experimental: as §1

Escherichia coli [3] = assay: as above; assay type: cell-based; details: 10 000 TSO/ml in phosphate buffer pH 4, 25° C.; for T 1d: 1 day; for T 7d: 7 days
Experimental: as §1

Staphylococcus aureus = assay: as above; assay type: cell-based; details: 10 000 TSO/ml in phosphate buffer pH 4, 25° C.; for T 1d: 1 day; for T 7d: 7 days
Experimental: as §1

Psuedomonas aeruginosa = assay: as above; assay type: cell-based; details: 10 000 TSO/ml in phosphate buffer pH 4, 25° C.; for T 1d: 1 day; for T 7d: 7 days
Experimental: as §1

feline calicivirus (FCV) = assay type: cell-based; details: pH 2, 30° C., with TSO; after 3 h
Bacillus subtilis = assay: Microbial count after H2SO4 treatment of inoculated nutrient suspension (test bacteria); details: pH 2, 6 h at 30° C.
Candida albicans [4] = assay: Microbial count after H2SO4 treatment of inoculated nutrient suspension (test yeasts); assay type: cell-based
[5] = test system: microorganisms in Trichuris suis egg suspension (TSO); assay: Depletion of microorganisms in a T. suis egg suspension (microbial count per DAB 2.6.12); assay type: cell-based; details: TSO 2400 eggs/ml rebuffered to pH 2; after storage for 3 h at 30° C.
Experimental: The microbial count in a Trichuris suis egg suspension (TSO) in phosphate buffer (pH 7) at a concentration of 2400 eggs/ml was determined as specified in the DAB (German Pharmacopoeia, section 2.6.12, last updated with the 24th Supplement in 2006). […] This suspension was then rebuffered to pH 2 in dilute H2SO4 solution.

Aspergillus niger [6] = assay: Microbial count after H2SO4 treatment of inoculated nutrient suspension (test molds); assay type: cell-based
Clostridium sporog. = assay: Microbial count after H2SO4 treatment of inoculated nutrient suspension (test bacteria); assay type: cell-based; details: pH 2, 6 h at 30° C.
porcine parvovirus (PPV) = assay type: cell-based; details: pH 2, 30° C., with TSO; after 3 h
pseudorabies virus (PRV) = assay type: cell-based; details: pH 2, 30° C., with TSO; after 10 min
[7] = test system: murine leukemia virus (MuLV); assay type: cell-based; details: pH 2, 30° C., with TSO; after 10 min
Penicillium brevicomp. = assay: Microbial count after H2SO4 treatment of inoculated nutrient suspension (test molds); assay type: cell-based
Saccharomyces cer. = assay: Microbial count after H2SO4 treatment of inoculated nutrient suspension (test yeasts); assay type: cell-based
Escherichia coli [8] = assay: Microbial count after H2SO4 treatment of inoculated nutrient suspension (test bacteria); details: pH 2, 6 h at 30° C.
Staphylococus aureus = assay: as above; details: pH 2, 6 h at 30° C.
Salmonella typhymurium = assay: as above; details: pH 2, 6 h at 30° C.

SMILES | T 1d (Candida albicans [1]) [cfu/ml] | T 7d (Candida albicans [1]) [cfu/ml] | T 0 (Candida albicans [1]) | T 1d (Aspergillus niger [2]) | T 7d (Aspergillus niger [2]) [cfu/ml] | T 0 (Aspergillus niger [2]) | T 1d (Escherichia coli [3]) [cfu/ml] | T 7d (Escherichia coli [3]) [cfu/ml] | T 0 (Escherichia coli [3]) | T 1d (Staphylococcus aureus) | T 7d (Staphylococcus aureus) [cfu/ml] | T 0 (Staphylococcus aureus) | T 1d (Psuedomonas aeruginosa) [cfu/ml] | T 7d (Psuedomonas aeruginosa) [cfu/ml] | T 0 (Psuedomonas aeruginosa) | other results
C/C=C/C=C/C(=O)O [Sorbic acid 0.1%, Sorbic acid] | 190 | <10 | 240 000 cfu/ml | 20 000 cfu/ml | <10 | 120 000 cEu/ml | 490 | <10 | 140 000 cfu/ml | 240 cfu/ml | <10 | 130 000 cfu/ml | 30 | <10 | 180 000 cfu/ml | –
[K+].[K+].[O]=[Cr](=[O])([O-])[O][Cr](=[O])(=[O])[O-] [potassium dichromate] | – | – | – | – | – | – | – | – | – | – | – | – | – | – | – | cytotoxicity (indicator cells): cytotoxicity
O=S(=O)(O)O [H2SO4 pH 2, H2SO4] | – | – | – | – | – | – | – | – | – | – | – | – | – | – | – | viral activity (feline calicivirus (FCV)): no longer infectious; microbial count, H2SO4 pH 2 after 6 h (Bacillus subtilis): 20* colony-forming units; microbial count T3h H2SO4 pH 2 (Candida albicans [4]; pH 2, 3 h at 25° C.): 380 000 cfu; microbial count T48h H2SO4 pH 2 (Candida albicans [4]; pH 2, 48 h at 25° C.): 32 000 cfu; microbial count [5]: < 20 cfu/ml; microbial count T3h H2SO4 pH 2 (Aspergillus niger [6]; pH 2, 3 h at 25° C.): 370 000 cfu; microbial count T48h H2SO4 pH 2 (Aspergillus niger [6]; pH 2, 48 h at 25° C.): 700 000 cfu; microbial count, H2SO4 pH 2 after 6 h (Clostridium sporog.): <10 colony-forming units; viral activity (porcine parvovirus (PPV)): no longer infectious; viral activity (pseudorabies virus (PRV)): no longer infectious; viral activity [7]: no longer infectious; microbial count T3h H2SO4 pH 2 (Penicillium brevicomp.; pH 2, 3 h at 25° C.): 90 000 cfu; microbial count T48h H2SO4 pH 2 (Penicillium brevicomp.; pH 2, 48 h at 25° C.): 32 000 cfu; microbial count T3h H2SO4 pH 2 (Saccharomyces cer.; pH 2, 3 h at 25° C.): 380 000 cfu; microbial count T48h H2SO4 pH 2 (Saccharomyces cer.; pH 2, 48 h at 25° C.): 220 000 cfu; microbial count, H2SO4 pH 2 after 6 h (Escherichia coli [8]): <10 colony-forming units; microbial count, H2SO4 pH 2 after 6 h (Staphylococus aureus): <10 colony-forming units; microbial count, H2SO4 pH 2 after 6 h (Salmonella typhymurium): <10 colony-forming units
O=S(=O)(O)O [H2SO1 pH 0, H2SO4] | – | – | – | – | – | – | – | – | – | – | – | – | – | – | – | microbial count T3h H2SO1 pH 0 (Aspergillus niger [6]; pH 0, 3 h at 25° C.): 50 cfu; microbial count T48h H2SO1 pH 0 (Aspergillus niger [6]; pH 0, 48 h at 25° C.): <10 cfu; microbial count T3h H2SO1 pH 0 (Penicillium brevicomp.; pH 0, 3 h at 25° C.): 70 cfu; microbial count T48h H2SO1 pH 0 (Penicillium brevicomp.; pH 0, 48 h at 25° C.): <10 cfu
CC(O)CO (stereo not shown) [Propylene glycol 15%, Propylene glycol] | 8600 | 30 | 240 000 cfu/ml | 30 000 cfu/ml | 9000 | 120 000 cEu/ml | 7100 | <10 | 140 000 cfu/ml | 14 000 cfu/ml | <10 | 130 000 cfu/ml | 10 | <10 | 180 000 cfu/ml | –
O=S(=O)(O)O [H2SO4 pH 1, H2SO4] | – | – | – | – | – | – | – | – | – | – | – | – | – | – | – | microbial count T3h H2SO4 pH 1 (Candida albicans [4]; pH 1, 3 h at 25° C.): 26 000 cfu; microbial count T48h H2SO4 pH 1 (Candida albicans [4]; pH 1, 48 h at 25° C.): <10 cfu; microbial count T3h H2SO4 pH 1 (Aspergillus niger [6]; pH 1, 3 h at 25° C.): 500 000 cfu; microbial count T48h H2SO4 pH 1 (Aspergillus niger [6]; pH 1, 48 h at 25° C.): 500 000 cfu; microbial count T3h H2SO4 pH 1 (Penicillium brevicomp.; pH 1, 3 h at 25° C.): 39 000 cfu; microbial count T48h H2SO4 pH 1 (Penicillium brevicomp.; pH 1, 48 h at 25° C.): 14 000 cfu; microbial count T3h H2SO4 pH 1 (Saccharomyces cer.; pH 1, 3 h at 25° C.): 39 000 cfu; microbial count T48h H2SO4 pH 1 (Saccharomyces cer.; pH 1, 48 h at 25° C.): 40* cfu
O=C(O)c1ccccc1 [Benzoic acid 0.2%, Benzoic acid] | <10 | <10 | 240 000 cfu/ml | 90 cfu/ml | <10 | 120 000 cEu/ml | <10 | <10 | 140 000 cfu/ml | <10 cfu/ml | <10 | 130 000 cfu/ml | <10 | <10 | 180 000 cfu/ml | –
